Test results published in ChEMBL document CHEMBL1147732, “Novel tacrine-melatonin hybrids as dual-acting drugs for Alzheimer disease, with improved acetylcholinesterase inhibitory and antioxidant properties” (J Med Chem, 2006).

Legend:
in vitro = settings: pig, PAMPA
Description: Permeability in BBB by PAMPA using a lipid extract of porcine brain

Butyrylcholinesterase = Butyrylcholinesterase (Equus caballus, UniProt Q9N1N9)
Description: Inhibition of BuChE from horse serum

Acetylcholinesterase [1] = target: T1, Acetylcholinesterase (Bos taurus, UniProt P23795)
T1 sequence (P23795 whole entry): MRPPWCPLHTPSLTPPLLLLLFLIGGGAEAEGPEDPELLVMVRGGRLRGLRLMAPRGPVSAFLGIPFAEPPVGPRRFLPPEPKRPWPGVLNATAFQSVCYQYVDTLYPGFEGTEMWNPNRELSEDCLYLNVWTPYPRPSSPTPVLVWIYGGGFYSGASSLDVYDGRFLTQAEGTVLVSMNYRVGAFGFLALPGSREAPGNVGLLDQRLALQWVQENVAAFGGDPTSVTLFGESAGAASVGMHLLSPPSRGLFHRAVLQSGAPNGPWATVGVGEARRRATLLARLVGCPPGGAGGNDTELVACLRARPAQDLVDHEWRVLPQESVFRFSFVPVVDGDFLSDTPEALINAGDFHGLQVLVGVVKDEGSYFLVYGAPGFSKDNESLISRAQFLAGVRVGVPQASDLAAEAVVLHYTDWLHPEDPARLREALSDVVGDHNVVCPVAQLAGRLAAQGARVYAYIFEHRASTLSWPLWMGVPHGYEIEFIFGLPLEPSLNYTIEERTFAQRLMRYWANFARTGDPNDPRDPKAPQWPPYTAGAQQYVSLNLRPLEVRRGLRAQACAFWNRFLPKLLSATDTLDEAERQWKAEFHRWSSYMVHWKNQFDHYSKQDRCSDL
Description: Inhibition of AchE from bovine erythrocytes

Acetylcholinesterase [2] = target: Acetylcholinesterase (Homo sapiens, UniProt P22303)
Sequence of Acetylcholinesterase (Homo sapiens, UniProt P22303) (P22303 whole entry): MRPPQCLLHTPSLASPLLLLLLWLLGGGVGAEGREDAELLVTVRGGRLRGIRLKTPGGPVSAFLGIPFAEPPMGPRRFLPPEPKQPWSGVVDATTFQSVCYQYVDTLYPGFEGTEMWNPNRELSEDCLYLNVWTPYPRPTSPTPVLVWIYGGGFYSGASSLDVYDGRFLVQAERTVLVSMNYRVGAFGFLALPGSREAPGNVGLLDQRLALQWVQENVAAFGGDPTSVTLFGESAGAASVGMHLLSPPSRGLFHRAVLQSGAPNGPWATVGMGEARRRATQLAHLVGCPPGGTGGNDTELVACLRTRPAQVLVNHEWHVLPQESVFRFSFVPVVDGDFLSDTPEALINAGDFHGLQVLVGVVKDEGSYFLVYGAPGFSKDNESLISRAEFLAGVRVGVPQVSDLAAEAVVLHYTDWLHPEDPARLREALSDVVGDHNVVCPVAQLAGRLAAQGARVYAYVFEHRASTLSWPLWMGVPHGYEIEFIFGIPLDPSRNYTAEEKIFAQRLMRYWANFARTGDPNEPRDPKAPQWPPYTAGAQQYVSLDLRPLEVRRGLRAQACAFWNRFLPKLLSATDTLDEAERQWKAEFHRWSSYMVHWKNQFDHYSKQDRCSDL

Cholinesterase = Cholinesterase (Homo sapiens, UniProt P06276)
Sequence of Cholinesterase (P06276 whole entry): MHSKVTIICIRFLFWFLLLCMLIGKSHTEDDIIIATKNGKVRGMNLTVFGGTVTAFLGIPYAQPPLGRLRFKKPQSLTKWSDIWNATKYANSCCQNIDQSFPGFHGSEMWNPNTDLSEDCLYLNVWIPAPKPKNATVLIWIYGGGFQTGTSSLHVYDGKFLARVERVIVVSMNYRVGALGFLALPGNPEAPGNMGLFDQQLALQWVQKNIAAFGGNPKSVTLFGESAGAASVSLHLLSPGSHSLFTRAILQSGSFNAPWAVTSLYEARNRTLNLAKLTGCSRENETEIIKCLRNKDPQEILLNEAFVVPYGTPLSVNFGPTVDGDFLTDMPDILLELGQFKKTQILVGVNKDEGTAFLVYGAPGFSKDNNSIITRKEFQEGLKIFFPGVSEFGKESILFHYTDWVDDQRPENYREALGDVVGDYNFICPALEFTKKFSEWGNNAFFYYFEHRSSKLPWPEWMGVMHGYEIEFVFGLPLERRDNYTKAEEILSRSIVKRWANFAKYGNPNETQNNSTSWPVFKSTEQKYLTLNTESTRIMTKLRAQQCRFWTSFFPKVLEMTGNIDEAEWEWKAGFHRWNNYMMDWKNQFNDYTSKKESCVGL
Description: Inhibition of human BuChE

Sequence of Butyrylcholinesterase (Q9N1N9 whole entry): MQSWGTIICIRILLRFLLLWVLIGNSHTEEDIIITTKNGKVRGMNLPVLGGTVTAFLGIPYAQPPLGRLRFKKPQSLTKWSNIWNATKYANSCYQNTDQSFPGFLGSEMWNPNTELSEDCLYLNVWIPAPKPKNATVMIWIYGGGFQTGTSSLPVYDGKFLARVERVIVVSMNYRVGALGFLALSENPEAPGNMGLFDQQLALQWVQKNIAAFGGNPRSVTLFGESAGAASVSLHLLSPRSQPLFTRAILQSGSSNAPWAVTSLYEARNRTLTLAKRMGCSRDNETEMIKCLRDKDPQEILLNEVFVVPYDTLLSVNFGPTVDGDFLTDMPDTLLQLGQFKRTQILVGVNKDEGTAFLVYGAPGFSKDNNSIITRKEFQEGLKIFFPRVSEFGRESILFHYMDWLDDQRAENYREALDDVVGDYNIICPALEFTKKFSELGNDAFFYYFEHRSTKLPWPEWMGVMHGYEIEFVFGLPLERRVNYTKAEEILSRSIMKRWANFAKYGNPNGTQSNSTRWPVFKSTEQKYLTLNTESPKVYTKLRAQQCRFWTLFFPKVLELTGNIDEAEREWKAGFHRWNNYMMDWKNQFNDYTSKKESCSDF

SMILES | Papp (in vitro) | IC50 (Butyrylcholinesterase) | IC50 (Acetylcholinesterase [1]) | IC50 (Acetylcholinesterase [2]) | IC50 (Cholinesterase)
COc1ccc2[nH]cc(CCNC(=O)CCCCCNc3c4c(nc5ccccc35)CCCC4)c2c1 | 7.7 ×10⁻⁶ cm/s | 2 nM | 9 nM | – | –
O=C(CCCCCNc1c2c(nc3cc(Cl)cc(Cl)c13)CCCC2)NCCc1c[nH]c2ccccc12 | 8.4 ×10⁻⁶ cm/s | 8.2 nM | 3.5 nM | – | –
O=C(CCCCCCNc1c2c(nc3cc(Cl)cc(Cl)c13)CCCC2)NCCc1c[nH]c2ccccc12 | – | 85 nM | 2 nM | 0.008 nM | 7.8 nM
O=C(CCCCCCNc1c2c(nc3ccccc13)CCCC2)NCCc1c[nH]c2ccccc12 | 9.2 ×10⁻⁶ cm/s | 0.95 nM | 1 nM | 0.5 nM | 6.8 nM
COc1ccc2[nH]cc(CCNC(=O)CCCCCNc3c4c(nc5cc(Cl)ccc35)CCCC4)c2c1 | – | 55 nM | 12 nM | – | –
O=C(CCCCCNc1c2c(nc3ccccc13)CCCC2)NCCc1c[nH]c2ccccc12 | 11 ×10⁻⁶ cm/s | 12 nM | 4 nM | – | –
COc1ccc2[nH]cc(CCNC(=O)CCCCCNc3c4c(nc5cccc(Cl)c35)CCCC4)c2c1 | 8.9 ×10⁻⁶ cm/s | 22 nM | 25 nM | – | –
O=C(CCCCCNc1c2c(nc3cccc(Cl)c13)CCCC2)NCCc1c[nH]c2ccccc12 | 5.2 ×10⁻⁶ cm/s | 15 nM | 65 nM | 0.87 nM | 23 nM
O=C(CCCCCNc1c2c(nc3ccccc13)CCCC2)NCCc1c[nH]c2ccc(O)cc12 | 2 ×10⁻⁶ cm/s | 3.5 nM | 35 nM | 0.45 nM | 1 nM
COc1ccc2[nH]cc(CCNC(=O)CCCCCCNc3c4c(nc5cc(Cl)cc(Cl)c35)CCCC4)c2c1 | – | 100 nM | 5 nM | 0.04 nM | 25 nM
O=C(CCCCCCNc1c2c(nc3cc(Cl)ccc13)CCCC2)NCCc1c[nH]c2ccccc12 | – | 8.1 nM | 0.2 nM | 0.1 nM | 35 nM
COc1ccc2[nH]cc(CCNC(=O)CCCCCCNc3c4c(nc5ccccc35)CCCC4)c2c1 | 8.6 ×10⁻⁶ cm/s | 2.5 nM | 2.3 nM | 0.65 nM | 3 nM
O=C(CCCCCNc1c2c(nc3cc(Cl)ccc13)CCCC2)NCCc1c[nH]c2ccccc12 | 7.7 ×10⁻⁶ cm/s | 5.2 nM | 2 nM | – | –
COc1ccc2[nH]cc(CCNC(C)=O)c2c1 [MELATONIN] | – | > 100 nM | > 100 nM | – | –
